The source of these data is patent US20180116983A1, “COMPOUNDS FOR TREATING DISORDERS ASSOCIATED WITH BK CHANNEL MODULATION” (Canbex Therapeutics Limited, priority 2015, published 2018).

Entries after “also recorded” stand apart in the source; their conditions may differ.

One test concerns the target BK channel (Homo sapiens, UniProt Q12791). The test can be described thus: Whole-cell patch clamp, BK current and membrane potential in EA.hy926 cells. Details: The human umbilical vein derived endothelial cell line, EA.hy926; endogenous in cells; host or cells: EA.hy926 human endothelial cell line. The test is classed as cell-based. How it is done:
The human umbilical vein derived endothelial cell line, EA.hy926 (Edgell et al., Proc Natl Acad Sci USA. 1983 June; 80(12): 3734-7) at passage >45 was grown in DMEM containing 10% FCS and 1% HAT (5 mM hypoxanthine, 20 μM aminopterin, 0.8 mM thymidine) and cells were maintained in an incubator at 37° C. in 5% CO2 atmosphere. Cells were plated on either 10 mm (for patch-clamp recordings) or 30 mm glass cover slips (for Ca^2+ measurements).
Membrane potential of EA.hy926 cells was recorded using the perforated patch clamp technique as described previously (Bondarenko et al, 2010, Br. J. Pharmacol. 161, 308-320). For membrane potential recordings from EA.hy926 cells the standard bath solution contained (in mM): 140 NaCl, 5 KCl, 1.2 MgCl2, 10 HEPES, 10 glucose, 2.4 CaCl2, patch pipettes were filled with a solution containing (in mmol/L): 140 KCl; 0.2 EGTA; 10 HEPES (pH adjusted to 7.2 using KOH). The resistance of the pipettes was 3-5 MΩ for whole cell and 6-8 MΩ for single channel recordings.

Another test concerns the target T1, KNCMA1 (Sus scrofa, UniProt O18866).
T1 construct: endogenous in cells; host or cells: primary pig aortic endothelial cells
The test can be described thus: Whole-cell current in primary pig aortic endothelial cells. The test is classed as cell-based. Conditions: no BK beta chains. An excerpt: Pig aortic endothelial cells only express KNCMAI and not KNCMB1-4 (Papassotiriou et al). Thus, the absence of stimulation indicates a lack of effect on KNCMA1.

The next test deals with rat mesenteric arteries. The test can be described thus: Vasodilation in rat mesenteric arteries (wire myograph). How it is done:
Rats were stunned by a blow to the back of their neck and killed by cervical dislocation in compliance with schedule 1 of the UK Animals (Scientific Procedures) Act 1986.
Segments (2 mm in length) were mounted in a Mulvany-Halpern type wire myograph (Model 610M; Danish Myo Technology, Aarhus, Denmark) and maintained at 37° C. in gassed (95% O2/5% CO2) Krebs-Henseleit solution of the following composition (mM): NaCl 118, KCl 4.7, MgSO4 1.2, KH2PO4 1.2, NaHCO, 25, CaCl2 2, D-glucose 10 as previously described (Ho and Randall, 2007). Arteries were equilibrated and set to a basal tension of 2-2.5 mN. The integrity of the endothelium was assessed by precontracting the vessel with 10 μM methoxamine (an α1-adrenoceptor agonist), followed by relaxation with 10 μM carbachol (a muscarinic acetylcholine receptor agonist); vessels showing relaxations of greater than 90% were designated as endothelium-intact. When endothelium was not required, it was removed by rubbing the intima with a human hair; carbachol-induced relaxation of less than 10% indicated successful removal. After the test for endothelial integrity, arteries were left for 30 min and then precontracted with 10 μM methoxamine (or 60 mM KCl), this was followed by construction of a cumulative concentration-relaxation curve to VSN16R (10 nM-1 μM). Most experiments were performed in matched vessels; effects of putative modulators or endothelial removal were compared with the control responses obtained in separate vessels of the same rat. Potential modulators were added to the myograph bath 30 min before measurement, and kept present during, construction of the concentration-relaxation curve.

In another test the test system is mesenteric arteries. Conditions: cited from earlier work.
Test [1] relates to C57BL/6.Fmr1 knockout mice. The test can be described thus: Marble burying in Fmr1 knockout mice. The test is classed as in vivo, mouse. As to conditions: 2 mg/kg i.v., 30 min. How it is done: Animals: C57BL/6.J. Fmr1-K02 mice, which have a deletion of the promoter and exonl of the Fmr1 gene (Mientjes et al., 2006) and C57BL/6J wild type (WT) were originated from the Jackson laboratory (Ann Harbor, USA). Mice were housed in groups (4-6 per cage) and all animals were provided with ad libitum food and water unless otherwise stated. Mice were maintained on a 12 h light/12 h dark cycle (lights off 19:00 to 7:00) in a temperature-controlled environment (21±1° C.). Testing was conducted in the light phase. Mice were housed in commercial cages and experiments were performed in line with the United Kingdom Animals (Scientific procedures) Act 1986. […]
Drug Treatment: VSN16R was dissolved in saline for injection intravenously via a tail vein using 2 mg/kg a 30 g needle in a volume of 0.1 ml. […] The eye condition (runny eyes or porphyria, ptosis), gait appearance, tremor, tail tone, reactivity to handling was assessed to detect adverse behavioural effect.
Marble burying: Mice will dig as part of their typical behaviours and this was detected using transparent plastic cages were filled with a 10 cm deep layer of sawdust on top of which 10 glass marbles were placed in two rows. Each animal was left undisturbed in such a cage for 30 min, after which the number of marbles that were buried to at least ⅔ of their depth was recorded. […]

Test [2] deals with C57BL/6.Fmr1 knockout mice. The test can be described thus: Contextual fear conditioning in Fmr1 knockout mice. Conditions: Fmr1 knockout mice, 2 mg/kg i.v. Format: in vivo, mouse. How it is done:
Animals: C57BL/6.J. Fmr1-K02 mice, which have a deletion of the promoter and exonl of the Fmr1 gene (Mientjes et al., 2006) and C57BL/6J wild type (WT) were originated from the Jackson laboratory (Ann Harbor, USA). Mice were housed in groups (4-6 per cage) and all animals were provided with ad libitum food and water unless otherwise stated. Mice were maintained on a 12 h light/12 h dark cycle (lights off 19:00 to 7:00) in a temperature-controlled environment (21±1° C.). Testing was conducted in the light phase. Mice were housed in commercial cages and experiments were performed in line with the United Kingdom Animals (Scientific procedures) Act 1986. All experiments were conducted with experimentors blind to genotype and drug treatment. Each experimental group contained 10 animals.
Drug Treatment: VSN16R was dissolved in saline for injection intravenously via a tail vein using 2 mg/kg a 30 g needle in a volume of 0.1 ml. Animals were inspected for differences in coat appearance, to detect whether any piloerection was present. The eye condition (runny eyes or porphyria, ptosis), gait appearance, tremor, tail tone, reactivity to handling was assessed to detect adverse behavioural effect.
Contextual fear conditioning: Animals are trained to expect an electroshock treatment within a defined environment, such that on subsequent presentation of the environment, freezing behaviours are induced. […]

Test [3] addresses T2, BKCa channels formed by the exon-less alpha subunit (Homo sapiens, UniProt Q12791).
T2 construct: expressed in transfected cells; host or cells: HEK293
The test can be described thus: Whole-cell BKCa current in HEK293 cells expressing the alpha subunit alone. The test is classed as cell-based. As to conditions: 20 μM.

BK channel, sequence (Q12791 1-1178 isoform Q12791-5): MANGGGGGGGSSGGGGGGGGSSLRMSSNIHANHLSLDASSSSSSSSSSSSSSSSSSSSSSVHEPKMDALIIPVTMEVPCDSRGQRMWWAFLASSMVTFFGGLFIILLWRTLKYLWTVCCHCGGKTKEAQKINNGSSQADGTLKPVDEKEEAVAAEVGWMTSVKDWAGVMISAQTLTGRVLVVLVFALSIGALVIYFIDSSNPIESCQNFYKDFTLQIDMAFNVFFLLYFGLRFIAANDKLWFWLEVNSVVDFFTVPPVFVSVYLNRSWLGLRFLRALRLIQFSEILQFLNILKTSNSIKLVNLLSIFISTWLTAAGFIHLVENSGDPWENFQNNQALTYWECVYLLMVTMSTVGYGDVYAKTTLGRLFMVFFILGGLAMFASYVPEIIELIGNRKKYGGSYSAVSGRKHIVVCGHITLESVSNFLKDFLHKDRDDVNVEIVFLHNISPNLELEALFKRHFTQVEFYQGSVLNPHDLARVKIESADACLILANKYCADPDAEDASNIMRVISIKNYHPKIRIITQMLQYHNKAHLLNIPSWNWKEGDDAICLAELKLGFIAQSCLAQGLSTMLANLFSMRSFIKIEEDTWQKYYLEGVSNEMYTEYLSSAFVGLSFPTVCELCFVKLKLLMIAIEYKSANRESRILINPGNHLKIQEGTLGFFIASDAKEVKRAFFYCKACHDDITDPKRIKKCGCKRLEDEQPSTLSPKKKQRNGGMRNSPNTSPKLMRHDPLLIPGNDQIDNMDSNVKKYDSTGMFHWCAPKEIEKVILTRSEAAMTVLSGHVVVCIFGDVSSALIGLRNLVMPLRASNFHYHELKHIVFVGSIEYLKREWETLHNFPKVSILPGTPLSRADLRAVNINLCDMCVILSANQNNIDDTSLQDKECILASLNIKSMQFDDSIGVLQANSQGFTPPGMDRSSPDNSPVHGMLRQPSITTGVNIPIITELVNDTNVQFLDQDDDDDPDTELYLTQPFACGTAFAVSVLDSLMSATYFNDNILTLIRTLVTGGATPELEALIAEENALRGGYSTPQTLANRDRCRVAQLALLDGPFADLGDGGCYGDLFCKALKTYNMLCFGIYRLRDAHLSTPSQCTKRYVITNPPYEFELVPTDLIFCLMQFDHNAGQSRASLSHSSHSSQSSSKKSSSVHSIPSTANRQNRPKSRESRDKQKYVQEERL
BK channel, sequence (Q86W47 whole entry partner): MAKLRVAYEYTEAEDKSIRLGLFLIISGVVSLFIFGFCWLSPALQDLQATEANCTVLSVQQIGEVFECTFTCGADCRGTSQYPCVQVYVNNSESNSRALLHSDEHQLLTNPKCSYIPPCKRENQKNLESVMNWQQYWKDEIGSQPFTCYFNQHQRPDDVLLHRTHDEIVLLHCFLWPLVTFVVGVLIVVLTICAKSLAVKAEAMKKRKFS
T2 sequence (Q12791 1-1178 isoform Q12791-5): as the sequence (Q12791 1-1178 isoform Q12791-5) above
T1 sequence (O18866 whole entry): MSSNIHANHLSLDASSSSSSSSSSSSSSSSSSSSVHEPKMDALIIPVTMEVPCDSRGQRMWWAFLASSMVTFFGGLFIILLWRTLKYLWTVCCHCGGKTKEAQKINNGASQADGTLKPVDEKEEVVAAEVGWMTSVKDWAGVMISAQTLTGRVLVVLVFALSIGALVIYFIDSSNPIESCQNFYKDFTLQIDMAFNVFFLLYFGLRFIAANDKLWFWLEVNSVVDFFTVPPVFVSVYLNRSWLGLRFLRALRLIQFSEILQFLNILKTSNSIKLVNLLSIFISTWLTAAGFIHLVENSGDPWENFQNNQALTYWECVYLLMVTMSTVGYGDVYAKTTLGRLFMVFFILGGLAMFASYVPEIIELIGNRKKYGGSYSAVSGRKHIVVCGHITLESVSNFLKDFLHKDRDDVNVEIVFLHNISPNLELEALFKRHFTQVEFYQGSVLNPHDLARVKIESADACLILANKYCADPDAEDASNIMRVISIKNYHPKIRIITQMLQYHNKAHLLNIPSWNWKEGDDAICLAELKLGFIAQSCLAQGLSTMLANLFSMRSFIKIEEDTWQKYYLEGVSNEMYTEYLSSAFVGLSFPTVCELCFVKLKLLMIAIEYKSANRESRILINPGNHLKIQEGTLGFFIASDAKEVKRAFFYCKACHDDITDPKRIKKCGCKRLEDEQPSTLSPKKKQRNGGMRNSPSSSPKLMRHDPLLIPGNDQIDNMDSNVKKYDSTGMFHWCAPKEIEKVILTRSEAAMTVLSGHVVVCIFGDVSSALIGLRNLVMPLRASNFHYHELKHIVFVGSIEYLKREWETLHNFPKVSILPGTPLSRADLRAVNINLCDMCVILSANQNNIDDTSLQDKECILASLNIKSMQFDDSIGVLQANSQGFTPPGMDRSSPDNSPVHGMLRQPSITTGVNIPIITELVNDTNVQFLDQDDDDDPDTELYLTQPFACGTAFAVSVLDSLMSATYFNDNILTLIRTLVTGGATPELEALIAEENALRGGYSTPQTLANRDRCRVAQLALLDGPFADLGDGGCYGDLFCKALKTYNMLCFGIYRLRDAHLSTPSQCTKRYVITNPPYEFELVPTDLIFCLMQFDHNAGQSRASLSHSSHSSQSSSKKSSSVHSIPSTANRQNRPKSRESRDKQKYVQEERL

In the case of `C[C@H](CO)NC(=O)c1cccc(/C=C\CCCC(=O)N(C)C)c1` [VSN16R], the membrane potential entry on BK channel (EA.hy926 cells) is “induces sustained hyperpolarisation”. Further, the “whole-cell BK current” value at BK channel (human EA.hy926 cells, current blocked by paxilline) is reported as “induces a BKca specific current; also recorded: induces currents that are sensitive to paxilline”. The effect on current entry on KNCMA1 is listed as “only a minor effect on current”. The “relaxation of rat mesenteric arteries in the presence of charybdotoxin” value in the test on rat mesenteric arteries (50 nM charybdotoxin) is “inhibited by antagonists of BKCa channels”. For the same compound, the “relaxation of rat mesenteric arteries in the presence of iberotoxin” value in the test on rat mesenteric arteries (50 nM iberotoxin) is recorded as “blocked by iberotoxin; also recorded: can be inhibited by the specific BK channel blocker iberiotoxin; also recorded: inhibited by antagonists of BKCa channels”. Moreover, the “activation of calcium activated potassium channels in arterial vasodilation assay” value in the test on rat mesenteric arteries (FIG. 9, reduction of endothelial tone) is listed as “activates calcium activated potassium channels”. Besides, the “relaxation of rat mesenteric arteries in the presence of apamin alone” value in the test with rat mesenteric arteries (apamin alone) is listed as “non-significant blockade”. Moreover, the “relaxation of rat mesenteric arteries in the presence of apamin and charybdotoxin” value in the test with rat mesenteric arteries (combination of apamin and charybdotoxin) was “blocked”. For the same compound, the “relaxation of rat mesenteric arteries in the presence of 60 mM KCl” value with rat mesenteric arteries (extracellular 60 mM KCl) is reported as “inhibiting VSN16R activity; also recorded: produced no relaxation”. The “relaxation of rat mesenteric arteries” value with rat mesenteric arteries (pre-contracted with methoxamine, endothelium intact vs denuded) was “relaxed; also recorded: can induce vasorelaxation in an endothelium-dependent (P<0.001) manner”. Further, the “action on smooth muscle carrying the β1 subunit” value with mesenteric arteries is listed as “does not act on smooth muscle”. Besides, in test [1], the “digging behaviour (marbles buried)” value is “inhibits the development of Exaggerated Digging Behaviours; also recorded: significantly (P<0.001) limited the exaggerated behaviour”. Moreover, the “fear conditioning (freezing)” value in test [2] is recorded as “inhibits the development of fear conditioning; also recorded: significantly (P<0.001) limited the exaggerated behaviour”. The “enhancement of BKCa current” value in test [3] (HEK293, steps −40 mV to +70 mV, 200 nM calcium) is “not responsive; also recorded: does not act on BKCa channels formed by the exon-less alpha subunit; also recorded: did not display any enhancing effect on the current; also recorded: did not affect the BKCa current at any voltage; also recorded: did not enhance BKCa currents”. In addition, the “activation voltage / voltage-dependence of activation of BKCa current” value in test [3] (intracellular calcium 1 μM, 200 nM, nominally 0 M) was “did not shift the voltage-depence of activation; also recorded: did not affect the activation voltage of BKCa current”.
